From patent US6004749A, “Method for identifying compounds affecting RNA/RNA binding protein interactions” (Message Pharmaceuticals, priority 1997, dated 1999)
pEC50: −log10 of the molar value. “Also recorded” adds a separate entry of the source.

Tests used:
[1] = tested on: AUUUA RNA / RNA binding protein (K562 extract); test: High throughput filter binding assay, 32P-labeled AUUUA RNA with K562 protein extract
Source text: FIG. 7 is a graph of the amount of radioactively labeled RNA retained on a filter (expressed in percent of the amount of RNA retained on a filter in a reference binding solution) following loading of various binding solutions. All of the binding solutions contained radioactively labeled AUUUA RNA either alone or including various other components. The first column represents a binding solution without RNA binding protein. The remaining columns represent binding solution containing RNA binding protein (K562 extract). Columns 3 through 8 correspond to binding solutions including the indicated test compound.
(§1) All binding reactions are performed in 96-well polystyrene plates in a final volume of 10 or 100 μl. The assays were constituted and performed as described below. Specifically, assays were performed by (1) forming a binding solution including RNA molecules, 7.5 mM BTP at pH 8.5, 10 mM KCl, 5 mM MgCl2, 0.2 mM DTT, and 10% glycerol, (2) heating the binding solution to denature the RNA molecules, (3) cooling the binding solution, (4) adding RNA binding proteins to the binding solution, (5) loading the binding solution onto a filter, and (6) detecting the amount RNA retained on the filter. It is preferred that the samples be loaded on to a filter of either pure nitrocellulose or a mixed cellulose ester (MCA). It is also preferred that the filters have a 0.2μ pore size, although filters with a 0.45μ pore size will also bind the RNA/RNA binding protein complex. It is preferred that, prior to loading the binding solution onto a filter, the volume is increased. For this purpose, it is preferred that the dilution solution has the same buffer components as the binding solution except lacking the density agent. For a 10 μl volume it is preferred that the final volume be about 100 μl by addition of 1× binding buffer. It is also preferred that the binding solution be loaded onto the filter under vacuum. It is also preferred that the filter is washed twice prior to detecting the amount of RNA retained on the filter. Preferably the wash solution had the same composition as the dilution solution. However, TE (pH 8.0), PBS, or TCA can also be used as wash solutions. In most of the assays described below, the RNA molecules were labeled with ^32 P.
The library was initially screened at 10 μM against ^32 P-labeled AUUUA RNA. Several methods of introducing the compounds into the binding reaction were tested. Initially the compounds were coincubated with the RNA and protein, producing modest results. Next, preincubation with either the protein extract or the RNA was tried with improved results.
Seventeen compounds were chosen for further analysis at 100 nM, 1 μM and 10 μM using both AUUUA and IRE RNAs based on the results from four screening efforts (Exps. 29-31, 33). Table 2 summarizes the results from these compounds at 10 μM. The results are also shown graphically in FIG. 7. […] Compounds D9 and H2, chosen as negative controls from the initial screening, continued to have no effect in the dose dependent screen (Exp. 33) and were identified as vehicle controls.

TNF-α production = details: previously shown; cited from earlier work
[2] = tested on: IRE RNA / RNA binding protein (K562 protein extract); test: Filter binding assay, IRE RNA with K562 protein extract; details: hemin 1 to 100 μM; FeCl3 1 μM to 1 mM; desferroxiamine 1 μM to 1 mM
Source text: FIG. 6 is a graph of the amount of radioactively labeled RNA retained on a filter (expressed in percent of the amount of RNA retained on a filter in a reference binding solution) following loading of various binding solutions. All of the binding solutions contained radioactively labeled IRE RNA either alone or including various other components. The first column represents a binding solution without RNA binding protein. The remaining columns represent binding solutions containing RNA binding protein (K562 extract). […] Desferal and des indicate that the binding solutions included the indicated amount of desferroxiamine as a test compound.
FIG. 8 is a graph of the amount of radioactively labeled RNA retained on a filter (expressed in percent of the amount of RNA retained on a filter in a reference binding solution) following loading of various binding solutions. Alternate columns correspond to binding solutions containing radioactively labeled AUUUA RNA or IRE RNA, either alone or including various other components. The first two column represents binding solutions without RNA binding protein. The remaining columns represent binding solution containing RNA binding protein (K562 extract). Columns 5 through 40 correspond to binding solutions including the indicated amount of the indicated test compound.
All binding reactions are performed in 96-well polystyrene plates in a final volume of 10 or 100 μl. The assays were constituted and performed as described below. […]
Binding assays were performed with wild-type IRE RNA and K562 protein extract in the presence of sources of iron or iron chelators to determine the ability of the filter assay to detect the modulation of binding interactions by small molecules. […] The reactions were analyzed by gel shifts to visualize the results of the filter assay.

[3] = tested on: TNF-α 3' untranslated region / human cell RBP's; test: High throughput screening assay, TNF-α 3' untranslated region with total protein extract; assay type: binding; details: TNF-α 3' UTR; for effect on TNF-α RNA/RBP interaction, in words: total protein extract; for pEC50: read-out: EC50 on in vitro binding
Procedure: FIG. 9A is a graph of the level of RNA/RBP interactions (between the TNF-α 3' untranslated region and human cell RBP's) in the presence or absence of test compounds. […] The remaining columns include RNA plus extract in the presence of specific compounds.
as §1
This example describes identification of compounds which either increase or decrease the binding interaction between a site within an RNA molecule which interacts with an RBP. This example makes use of a total protein extract which allows identification of compounds that modulate interactions without the need for identification of the specific RBP(s) involved.

[4] = tested on: iron response element RNA/RBP interaction; test: Control assay using the iron response element (Example 4); assay type: binding; details: increasing concentrations; unrelated RNA specificity control
[5] = compound 10 μM, RNA & K562 = 100.00

CC(=NNC(=N)N)c1cc(NC(=O)CCCCCCCCC(=O)Nc2cc(C(C)=NNC(=N)N)cc(C(C)=NNC(=N)N)c2)cc(C(C)=NNC(=N)N)c1 [Compound G10, CNI-1493]
effect on counts (AUUUA RNA binding), in words ([1]; 10 μM, AUUUA RNA): substantial increase in counts in 3 of the 4 experiments | Avg. % (labeled AUUUA RNA retained on filter, average of Experiments #33, #31, #30, #29) [1, 5]: 111.00% | Labeled AUUUA RNA retained on filter, percent of RNA & K562 control, Experiment #29 [1, 5]: 114.53% | Labeled AUUUA RNA retained on filter, percent of RNA & K562 control, Experiment #30 [1, 5]: 66.94% | Labeled AUUUA RNA retained on filter, percent of RNA & K562 control, Experiment #31 [1, 5]: 127.28% | Labeled AUUUA RNA retained on filter, percent of RNA & K562 control, Experiment #33 [1, 5]: 135.24% | effect on TNF-α production, in words (TNF-α production): post-transcriptionally inhibit TNF-α production

CC(=O)N(O)CCCCCNC(=O)CCC(=O)N(O)CCCCCNC(=O)CCC(=O)N(O)CCCCCN [Desferroxiamine, desferroxiamine]
modulation of IRE/protein binding by iron sources or iron chelator, in words [2]: did not change the amount IRE/protein complex formed

[Cl][Fe]([Cl])[Cl] [FeCl3]
modulation of IRE/protein binding by iron sources or iron chelator, in words [2]: concentration-dependent inhibition of binding

O=[N+]([O-])c1ccc(C(Cl)=NCCCN=Cc2ccc3c(c2)OCO3)cc1 [SYM 1301]
effect on TNF-α RNA/RBP interaction, in words [3]: no effect

Cc1c(CCN)c2c3n1CCCC3CCC2 (centres unmarked) [SYM 1405]
inhibition of binding [3]: about 40% | effect on TNF-α RNA/RBP interaction, in words [3]: inhibited binding of TNF-α in a concentration-dependent manner; also recorded: concentration-dependent inhibition | pEC50 [3]: ~5.70 | effect on iron response element binding, in words [4]: little effect on the iron response element

CC(=NNC(=N)N)c1cc(NC(=O)CCCCCCC(=O)Nc2cc(C(C)=NNC(=N)N)cc(C(C)=NNC(=N)N)c2)cc(C(C)=NNC(=N)N)c1 [SYM 1710]
potentiation of binding [3]: approximately 3 fold | pEC50 [3]: 4.64

hemin
modulation of IRE/protein binding by iron sources or iron chelator, in words [2]: concentration-dependent inhibition of binding
